# According to US20140336216A1, “PHYSIOLOGICAL LIGANDS FOR GPR139” (Janssen Pharmaceutica NV, priority 2013, published 2014):
# Values joined by “and” are separate entries in the source; they are usually repeats but may differ in a detail not shown here. Equal values may be shown once. Read-outs that look alike come from different tables or passages of the source.
# Assays:
# GO2Q alone = experiment: GTPγS binding assay, control COS7 membranes expressing GO2Q alone (Ct-GO2Q); assay type: biochemical
# Procedure: (§1) In order identify the ligands for GPR139 two improvements in the detection assay were made to allow for the ligands to be detected. First, we chose to use a GTPγS binding assay instead of using live cultured cells. The GTPγS binding assay is a cell free system that uses the cell membrane of the cell(s) of interest rather than the live cell(s). One advantage of this assay is that potential ligands present in the cell culture media are washed away when the cell membrane is prepared. This reduces the basal level of signal and increase the chance of detecting receptor ligands when assessing compounds that activate the receptor. Second, a GO2Q chimeric G-protein was created to be co-expressed with GPR139 in order to increase the signal-to-noise ratio in the GTPγS binding assay. Historically, the Gi, Go coupled GPCRs offer much greater signal-to-noise ratio in GTPγS binding studies. For Gs and Gq coupled GPCRs, although ligand-stimulated specific signals can be detected in a GTPγS binding assay, the signal-to-noise ratios are often very small. To address this a chimeric GO2-Gq chimeric G-protein, GO2Q, with the N-terminus from Go2 protein and the C-terminus from Gq protein.
# (§2) To test for compounds that activate GPR139, different amino acids and their derivatives (Table 2) were tested as ligands in the GTPγS binding assay using cell membranes from COS7 cells co-expressing GPR139 and GO2Q. Cell membrane from COS7 cells expressing GO2Q alone or co-expressing other GPCRs were also tested in GTPγS binding assay in parallel as controls. Each compound was tested in triplicate.
# GPR139 [1] = molecular target: T1, GPR139 (Homo sapiens, UniProt Q6DWJ6); experiment: GTPγS binding assay, single-concentration screen, COS7 membranes co-expressing GPR139 and GO2Q; assay type: biochemical; design: expressed in transfected cells; host or cells: COS7 (membranes); details: for Activation levels of GPR139 (GTPγS binding), GPR139-GO2Q: 1 mM final concentration, COS7 membranes co-expressing GPR139 and GO2Q, single wells of triplicate
# T1 sequence (Q6DWJ6 1-353): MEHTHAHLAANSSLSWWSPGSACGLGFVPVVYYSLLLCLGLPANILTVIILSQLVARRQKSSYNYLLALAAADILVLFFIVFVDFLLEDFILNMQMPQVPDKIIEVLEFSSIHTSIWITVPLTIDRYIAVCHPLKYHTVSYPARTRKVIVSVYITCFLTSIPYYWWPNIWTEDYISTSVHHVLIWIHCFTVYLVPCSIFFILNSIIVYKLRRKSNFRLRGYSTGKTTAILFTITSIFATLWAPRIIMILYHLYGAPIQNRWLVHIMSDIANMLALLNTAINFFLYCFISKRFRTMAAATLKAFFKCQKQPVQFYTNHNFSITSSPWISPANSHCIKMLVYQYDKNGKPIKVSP
# Procedure: as §1, §2
# GPR139 [2] = molecular target: T1, GPR139; experiment: GTPγS binding dose response study, human GPR139 co-transfected with GO2Q into COS7 cells; assay type: biochemical; design: expressed in transfected cells; host or cells: COS7 (membranes); details: human GPR139, FIG. 2A and 2B
# Source text: (§3) FIG. 2-FIG. 2F: Tryptophan, phenylalanine, and their derivatives activate GPR139. Human (FIG. 2A and FIG. 2B) or mouse (FIG. 2C and FIG. 2D) GPR139 were co-transfected with chimeric G-protein GO2Q into COS7 cells. Cell membranes from transfected cells were used in GTPγS binding studies using various ligands at different concentrations to stimulate GPR139. FIG. 2E and FIG. 2F show control experiments in the dose response studies of Example 1.
# mouse GPR139 = molecular target: T2, mouse GPR139 (Mus musculus, UniProt Q80UC8); experiment: GTPγS binding dose response study, mouse GPR139 co-transfected with GO2Q into COS7 cells; assay type: biochemical; details: mouse GPR139, FIG. 2C and 2D
# T2 construct: expressed in transfected cells; host or cells: COS7 (membranes)
# T2 sequence (Q80UC8 1-345): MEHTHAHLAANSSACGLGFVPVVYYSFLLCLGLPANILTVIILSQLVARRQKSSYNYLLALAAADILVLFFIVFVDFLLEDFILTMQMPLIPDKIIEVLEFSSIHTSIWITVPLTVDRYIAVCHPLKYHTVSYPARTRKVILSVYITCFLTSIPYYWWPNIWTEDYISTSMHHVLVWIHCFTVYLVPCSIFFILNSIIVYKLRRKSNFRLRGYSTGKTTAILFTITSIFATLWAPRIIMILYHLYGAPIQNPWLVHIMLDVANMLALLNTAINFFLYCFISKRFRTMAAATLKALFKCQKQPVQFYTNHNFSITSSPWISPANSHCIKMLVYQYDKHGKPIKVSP
# Source text: as §3
# GPR139 [3] = molecular target: T1, GPR139; experiment: Calcium mobilization assay (FLIPR), GPR139 expressed in HEK293 cells; assay type: cell-based; design: expressed in transfected cells; host or cells: HEK293 (transient); details: similar to GTPγS binding studies
# Procedure: FIG. 3A and FIG. 3B: Provides the results of experiments conducted to determine whether Trp and its derivatives (FIG. 3A) and Phe and its derivatives (FIG. 3B) stimulate Ca^2+ mobilization in HEK293 cells expressing GPR139.
# The active compounds were also tested in a calcium mobilization assay (FLIPR® assay). For these experiments human GPR139 was transiently expressed in HEK293 cells and calcium mobilization was stimulated using L-Trp, L-Phe or their derivatives. […] The concentrations of L-Trp and L-Phe in many cell culture media (for instance DMEM is about 80 μM and 750 μM respectively) are close to the EC50 values of L-Trp and L-Phe for GPR139. […] This may explain why GPR139 appeared constitutively active when recombinantly expressed in mammalian cells.
# About 300 additional phenylalanine analogues have been tested for GPR139 activation using a calcium mobilization (FLIPR®) assay. The results of these experiments indicate that many of these analogues can also activate GPR139. Table 4 lists certain phenylalanine analogues that have been determined to activate GPR139 by calcium mobilization at a concentration of 300 μM (calcium mobilization is expressed as percentage of that observed for L-phenylalanine).
# [4] = 1 mM final concentration, COS7 membranes expressing GO2Q alone, single wells of triplicate
SMILES,"Activation levels (GTPγS binding), Ct-GO2Q (GO2Q alone; [4])","Activation levels of GPR139 (GTPγS binding), GPR139-GO2Q (GPR139 [1])",further results
CC(C)C[C@H](N)C(=O)O [Leu],2194 and 2213 and 2167,2621 and 2544 and 2437,–
"NCCc1c[nH]cn1 [HA, histamine]",2186 and 2204 and 2199,2737 and 2863 and 2899,–
NCC(=O)O [Gly],1936 and 2133 and 2289,2560 and 2505 and 2414,–
"N[C@H](Cc1ccccc1)C(=O)O [D-Phe, D-phenylalanine]",–,–,Dose-responsive activation of GPR139 (GTPγS binding) (GPR139 [2]): specifically activate GPR139 in a dose-responsive manner; Dose-responsive activation of GPR139 (GTPγS binding) (mouse GPR139): specifically activate GPR139 in a dose-responsive manner
NCCc1c[nH]c2ccccc12 [Tryptamine],2025 and 2048 and 2088,6757 and 7686 and 7742,Dose-responsive activation of GPR139 (GTPγS binding) (GPR139 [2]): specifically activate GPR139 in a dose-responsive manner; Activation of GPR139 in the GTPγS binding assay (GPR139 [1]; 1 mM): activated GPR139; Dose-responsive activation of GPR139 (GTPγS binding) (mouse GPR139): specifically activate GPR139 in a dose-responsive manner
NC(=O)C[C@H](N)C(=O)O [Asn],2195 and 2142 and 2133,2806 and 2483 and 2547,–
"N[C@H](Cc1c[nH]c2ccccc12)C(=O)O [D-Trp, D-tryptophan]",–,–,Dose-responsive activation of GPR139 (GTPγS binding) (GPR139 [2]): specifically activate GPR139 in a dose-responsive manner; Dose-responsive activation of GPR139 (GTPγS binding) (mouse GPR139): specifically activate GPR139 in a dose-responsive manner
NC(=O)CC[C@H](N)C(=O)O [Gln],2181 and 2327 and 2336,2583 and 2525 and 2766,–
"Cn1cc(C[C@H](N)C(=O)O)c2ccccc21 [1-methy-L-Trp, 1-methyl-L-Trp]",–,–,Dose-responsive activation of GPR139 (GTPγS binding) (GPR139 [2]): specifically activate GPR139 in a dose-responsive manner; Potency in calcium mobilization relative to L-Trp and L-Phe (GPR139 [3]): higher potencies; Dose-responsive activation of GPR139 (GTPγS binding) (mouse GPR139): specifically activate GPR139 in a dose-responsive manner
N[C@@H](CCC(=O)O)C(=O)O [Glu],2242 and 2310 and 2311,2847 and 2837 and 2841,–
NCCc1c[nH]c2ccc(O)cc12 [Seretonin],2356 and 2154 and 2332,2839 and 2852 and 2920,–
NCC(O)c1ccc(O)cc1 (stereo not shown) [Octopamine],2087 and 2140 and 2142,2554 and 2675 and 2831,–
O=C(O)[C@@H]1C[C@@H](O)CN1 [HO-Pro],2166 and 2152 and 2189,2825 and 2797 and 3109,–
CC(C)[C@H](N)C(=O)O [Val],2072 and 2083 and 1977,2632 and 2689 and 2533,–
CC[C@H](C)[C@H](N)C(=O)O [Ile],2266 and 2222 and 2253,2760 and 2542 and 2903,–
"Cn1cc(C[C@@H](N)C(=O)O)c2ccccc21 [1-methy-D-Try, 1-methyl-D-Trp]",–,–,Dose-responsive activation of GPR139 (GTPγS binding) (GPR139 [2]): specifically activate GPR139 in a dose-responsive manner; Potency in calcium mobilization relative to L-Trp and L-Phe (GPR139 [3]): higher potencies; Dose-responsive activation of GPR139 (GTPγS binding) (mouse GPR139): specifically activate GPR139 in a dose-responsive manner
N=C(N)NCCC[C@H](N)C(=O)O [Arg],–,2806 and 2783 and 2528,"Activation levels (GTPγS binding), Ct-GO2Q (GO2Q alone): 2171 and 2131 and 2255"
N[C@@H](CO)C(=O)O [Ser],1975 and 2036 and 2164,2605 and 2458 and 2545,–

# More lines, main results first:
"Activation levels (GTPγS binding), Ct-GO2Q (GO2Q alone; [4])","Activation levels of GPR139 (GTPγS binding), GPR139-GO2Q (GPR139 [1])",SMILES,further results
2256 and 2235 and 2329,2719 and 2657 and 2786,O=C(O)[C@@H]1CCCN1 [Pro],–
1928 and 2132 and 2114,2168 and 2458 and 2336,N[C@@H](CS)C(=O)O [Cys],–
2210 and 2213 and 2008,2547 and 2507 and 2558,C[C@@H](O)[C@H](N)C(=O)O [Thr],–
1903 and 2049 and 2139,2363 and 2348 and 2439,C[C@H](N)C(=O)O [Ala],–
2242 and 2149 and 2229,2501 and 2652 and 2258,N[C@@H](CSSC[C@H](N)C(=O)O)C(=O)O [Cystine],–
2192 and 2191 and 2186,2752 and 2715 and 2921,N[C@@H](Cc1ccc(O)cc1)C(=O)O [Tyr],–
2173 and 2307 and 2276,2657 and 2829 and 2802,CSCC[C@H](N)C(=O)O [Met],–
2132 and 2277 and 2369,2883 and 2932 and 2873,NCCc1ccc(O)cc1 [Tyramine],–
2177 and 2137 and 2132,2758 and 2922 and 2925,N[C@@H](CC(=O)O)C(=O)O [Asp],–
2240 and 2117 and 2045,2721 and 2624 and 2670,CNCC(O)c1ccc(O)c(O)c1 (stereo not shown) [Adrenaline],–
2400 and 2138 and 2041,2433 and 2617 and 2589,NCCCC[C@H](N)C(=O)O [Lys],–
2308 and 2259 and 2197,2640 and 2499,N[C@@H](Cc1c[nH]cn1)C(=O)O [His],–
2250 and 2213 and 2319,2688 and 2825 and 2708,NCCc1ccc(O)c(O)c1 [DA],–
